Test systems include ACHN renal; DU-145 prostate; HCT-15 colon; HS 578T breast; IGROV1 ovarian; K-562 leukemia; MDA-MB-435; MDA-N; NCI-H23 lung; NCI-H522 lung; NCI/ADR-RES ovarian; OVCAR-3 ovarian; PC-3 prostate; SK-MEL-5 melanoma; SR leukemia; SW-620 colon; UACC-62 melanoma; SK-MEL-2 melanoma; CAKI-1 renal; A498 renal.
Common to all, as to experiment: growth of human tumour cells (NCI), 48 h

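Method: 48-hour compound exposure of cells in 96-well plates, five concentrations, linear interpolation of endpoints. TGI: concentration producing complete growth inhibition.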 Where a SMILES comes first, the peptide text is derived from it. [ ]: non-standard residue; d: D form. The star is where a group is joined. Phe(4-NO2) = N[CH](Cc1ccc([N+](=O)[O-])cc1)C(=O)O; Cbz = O=C(OCc1ccccc1)*

Take `C=C(C)CNC(=S)N(N)c1ccc(OC)cc1`: the TGI was more than 100 µM in the experiment with ACHN renal; more than 100 µM with DU-145 prostate; 56.8 µM in the experiment on HCT-15 colon; more than 100 µM in the experiment with HS 578T breast; more than 100 µM with IGROV1 ovarian; more than 100 µM in the experiment on K-562 leukemia. The TGI in the experiment with MDA-MB-435, in the experiment on MDA-N, with NCI-H23 lung, with NCI-H522 lung, in the experiment on NCI/ADR-RES ovarian and in the experiment with OVCAR-3 ovarian was more than 100 µM throughout. For the same compound, the TGI is more than 100 µM in the experiment with PC-3 prostate; more than 100 µM in the experiment with SK-MEL-5 melanoma; more than 100 µM in the experiment with SR leukemia; more than 100 µM in the experiment on SW-620 colon; 67.7 µM in the experiment on UACC-62 melanoma.

Regarding `CCOC(=O)CC(=O)C(=O)NNC1=NCCN1`, the TGI in the experiment with ACHN renal, with DU-145 prostate, with HCT-15 colon, in the experiment on HS 578T breast, in the experiment with IGROV1 ovarian and in the experiment on K-562 leukemia was more than 100 µM throughout. Also, the TGI in the experiment on MDA-MB-435, in the experiment with MDA-N, with NCI-H23 lung, in the experiment with NCI-H522 lung, in the experiment with NCI/ADR-RES ovarian and in the experiment on OVCAR-3 ovarian was more than 100 µM in each case. The TGI in the experiment on PC-3 prostate, with SK-MEL-2 melanoma, in the experiment with SK-MEL-5 melanoma, with SR leukemia, with SW-620 colon and in the experiment on UACC-62 melanoma was more than 100 µM throughout.

`COc1ccc2oc(=Nc3ccccc3)c(C(N)=O)cc2c1`: the TGI is 42 µM in the experiment with ACHN renal; more than 100 µM in the experiment with CAKI-1 renal; more than 100 µM with DU-145 prostate; more than 100 µM in the experiment with HCT-15 colon; more than 70.1 µM with HS 578T breast; more than 100 µM in the experiment on IGROV1 ovarian. The TGI with K-562 leukemia was more than 100 µM; in the experiment on MDA-MB-435, more than 24.4 µM; with MDA-N, more than 100 µM; in the experiment with NCI-H23 lung it was more than 100 µM; in the experiment on NCI-H522 lung it was more than 100 µM; in the experiment on NCI/ADR-RES ovarian it was more than 100 µM. The TGI with OVCAR-3 ovarian, in the experiment on PC-3 prostate, with SK-MEL-2 melanoma, in the experiment with SK-MEL-5 melanoma, with SR leukemia and in the experiment with SW-620 colon was more than 100 µM in each case.

Regarding `CC1=C(C)CC(C#N)(C#N)C(C#N)(C#N)C1`, the TGI in the experiment on A498 renal, in the experiment on ACHN renal, in the experiment on CAKI-1 renal, with DU-145 prostate, with HCT-15 colon and in the experiment with HS 578T breast was more than 10 µM throughout. For the same compound, the TGI in the experiment on IGROV1 ovarian is more than 5.87 µM; in the experiment on K-562 leukemia it was 9.98 µM; in the experiment on MDA-N it was more than 7.22 µM; with NCI-H23 lung, more than 6.63 µM; in the experiment with NCI-H522 lung, more than 2.72 µM; with NCI/ADR-RES ovarian, more than 10 µM. Moreover, the TGI is 9.68 µM in the experiment on OVCAR-3 ovarian; more than 10 µM with PC-3 prostate; more than 10 µM with SK-MEL-2 melanoma; more than 10 µM in the experiment on SK-MEL-5 melanoma; more than 5.17 µM with SR leukemia; more than 5.42 µM in the experiment on SW-620 colon. This compound yielded a TGI in the experiment on UACC-62 melanoma of more than 10 µM.

For the compound `CC1=CC=C2c3ccccc3C=CN2C(=O)C1`, the TGI with ACHN renal, in the experiment with CAKI-1 renal, with DU-145 prostate, in the experiment on HCT-15 colon, in the experiment with HS 578T breast and with IGROV1 ovarian was more than 100 µM in each case. In addition, the TGI in the experiment with K-562 leukemia, in the experiment with MDA-MB-435, in the experiment with MDA-N, with NCI-H23 lung, in the experiment with NCI-H522 lung and in the experiment with NCI/ADR-RES ovarian was more than 100 µM throughout. For the same compound, the TGI is more than 100 µM with OVCAR-3 ovarian; more than 100 µM in the experiment on PC-3 prostate; more than 100 µM in the experiment with SK-MEL-2 melanoma; 46.1 µM in the experiment on SK-MEL-5 melanoma; more than 100 µM in the experiment on SR leukemia; more than 100 µM in the experiment on SW-620 colon. The TGI with UACC-62 melanoma was more than 100 µM.

As for `CC(=O)OCc1ccc2oc(=O)c(C(=O)Oc3cccc(Cl)c3)cc2c1`, the TGI in the experiment with ACHN renal, with CAKI-1 renal, in the experiment on DU-145 prostate, with HCT-15 colon, in the experiment with HS 578T breast and in the experiment on IGROV1 ovarian was more than 100 µM in each case. The TGI in the experiment with K-562 leukemia was 79.8 µM; with MDA-MB-435, more than 100 µM; with MDA-N it was more than 100 µM; in the experiment on NCI-H23 lung it was more than 100 µM; in the experiment with NCI-H522 lung, more than 100 µM; in the experiment on NCI/ADR-RES ovarian it was more than 100 µM. Also, the TGI in the experiment with OVCAR-3 ovarian was more than 100 µM; with PC-3 prostate it was 34.4 µM; in the experiment on SK-MEL-2 melanoma, more than 100 µM; in the experiment with SK-MEL-5 melanoma it was more than 100 µM; in the experiment with SR leukemia it was more than 100 µM; in the experiment with SW-620 colon, more than 100 µM. The compound also showed a TGI with UACC-62 melanoma of 34.2 µM.

With `Cc1c(-c2ccccc2)[nH]c2ccc(Cl)cc2c1=O`, the TGI in the experiment on ACHN renal was more than 100 µM; in the experiment with CAKI-1 renal, 3.82 µM; with DU-145 prostate it was more than 100 µM; in the experiment on HCT-15 colon, more than 100 µM; with HS 578T breast, more than 100 µM; in the experiment on IGROV1 ovarian, more than 100 µM. Moreover, the TGI in the experiment with K-562 leukemia is more than 100 µM; with MDA-MB-435, 57.3 µM; in the experiment with MDA-N, 54.6 µM; in the experiment on NCI-H23 lung, more than 100 µM; with NCI-H522 lung it was more than 100 µM; with NCI/ADR-RES ovarian it was more than 100 µM. The TGI was 72 µM with OVCAR-3 ovarian; more than 100 µM with PC-3 prostate; 87 µM in the experiment on SK-MEL-2 melanoma; 56.3 µM in the experiment with SK-MEL-5 melanoma; more than 100 µM in the experiment on SR leukemia; more than 100 µM with SW-620 colon. Also, the TGI in the experiment on UACC-62 melanoma is more than 100 µM.

For the compound `CC1C(=NO)C(C)C(c2ccccc2)N(N=O)C1c1ccccc1` (stereo not given), the TGI is 45.7 µM with ACHN renal; 90.8 µM in the experiment with DU-145 prostate; 31.9 µM in the experiment on HCT-15 colon; 36.7 µM in the experiment on HS 578T breast; 52.9 µM in the experiment on IGROV1 ovarian; more than 100 µM in the experiment with K-562 leukemia. The TGI amounted to 44.8 µM in the experiment with MDA-MB-435; 36.3 µM with MDA-N; 77.1 µM in the experiment with NCI-H23 lung; 34.5 µM in the experiment with NCI-H522 lung; 37 µM in the experiment on NCI/ADR-RES ovarian; 65.7 µM in the experiment on OVCAR-3 ovarian. Also, the TGI in the experiment on PC-3 prostate was more than 100 µM; with SK-MEL-2 melanoma, 39.5 µM; in the experiment on SK-MEL-5 melanoma, 33.1 µM; in the experiment on SR leukemia, 45.7 µM; in the experiment on SW-620 colon it was 42 µM; with UACC-62 melanoma, 27.2 µM.

On to `CC1(C)C(C#N)=[N+]([O-])C(C)(C)N1O`, for which the TGI in the experiment on ACHN renal, in the experiment with CAKI-1 renal, with DU-145 prostate, with HCT-15 colon, in the experiment with HS 578T breast and with IGROV1 ovarian was more than 100 µM each time. The TGI in the experiment with K-562 leukemia, in the experiment with MDA-MB-435, in the experiment on MDA-N, in the experiment with NCI-H23 lung, with NCI/ADR-RES ovarian and in the experiment on OVCAR-3 ovarian was more than 100 µM throughout. Besides, the TGI in the experiment with PC-3 prostate, in the experiment on SK-MEL-2 melanoma, with SK-MEL-5 melanoma, in the experiment on SR leukemia, with SW-620 colon and in the experiment with UACC-62 melanoma was more than 100 µM throughout.

Turning to `CCOC(=O)CCC(NC(=O)OCc1ccccc1)C(=O)NC(CCC(=O)OCC)C(=O)NC(Cc1ccc([N+](=O)[O-])cc1)C(=O)NC(CCC(=O)OCC)C(=O)NC(CCC(=O)OCC)C(=O)OCC` (stereo not given) (Cbz-E(OEt)E(OEt)[Phe(4-NO2)]E(OEt)E(OEt)-OEt; configuration not given here), the TGI in the experiment on ACHN renal, in the experiment on CAKI-1 renal, in the experiment with DU-145 prostate, in the experiment with HCT-15 colon, in the experiment on HS 578T breast and in the experiment on IGROV1 ovarian was more than 100 µM throughout. In addition, the TGI with MDA-MB-435, in the experiment with MDA-N, in the experiment on NCI-H23 lung, in the experiment on NCI-H522 lung, in the experiment with NCI/ADR-RES ovarian and with PC-3 prostate was more than 100 µM in each case. Moreover, the TGI with SK-MEL-2 melanoma, in the experiment with SK-MEL-5 melanoma, in the experiment on SR leukemia, in the experiment with SW-620 colon and in the experiment with UACC-62 melanoma was more than 100 µM each time.

`Cc1ccc2nc(N/N=C/c3ccc(C)s3)cc(C)c2c1`: the TGI stood at 24.1 µM with ACHN renal; 30.9 µM with CAKI-1 renal; 23 µM in the experiment with DU-145 prostate; 15.3 µM with HCT-15 colon; 39.2 µM in the experiment on HS 578T breast; 23.6 µM in the experiment with IGROV1 ovarian. Moreover, the TGI in the experiment with K-562 leukemia was more than 100 µM; in the experiment with MDA-MB-435, 23.1 µM; in the experiment on MDA-N, 20.4 µM; in the experiment on NCI-H23 lung it was 22 µM; in the experiment with NCI-H522 lung, 18.9 µM; in the experiment with NCI/ADR-RES ovarian, 47.2 µM. Also, the TGI is 17.4 µM in the experiment on OVCAR-3 ovarian; 24.1 µM in the experiment with PC-3 prostate; 35.3 µM with SK-MEL-2 melanoma; 20.4 µM in the experiment with SK-MEL-5 melanoma; more than 100 µM in the experiment on SR leukemia; 29.4 µM in the experiment with SW-620 colon. In the experiment on UACC-62 melanoma, the TGI was determined as 23.6 µM.

As to `COc1cccc(C(=O)Nc2c3ccccc3nc3ccccc23)c1OC`, the TGI in the experiment with ACHN renal, in the experiment on CAKI-1 renal, in the experiment on DU-145 prostate, with HCT-15 colon, in the experiment with HS 578T breast and in the experiment on IGROV1 ovarian was more than 100 µM in each case. Moreover, the TGI in the experiment with K-562 leukemia was more than 100 µM; in the experiment with MDA-MB-435, more than 100 µM; with MDA-N it was more than 100 µM; in the experiment with NCI-H23 lung, more than 100 µM; in the experiment with NCI-H522 lung it was 89.9 µM; in the experiment on NCI/ADR-RES ovarian, more than 100 µM. Moreover, the TGI with OVCAR-3 ovarian, in the experiment with PC-3 prostate, in the experiment with SK-MEL-2 melanoma, in the experiment with SK-MEL-5 melanoma, with SR leukemia and in the experiment on SW-620 colon was more than 100 µM each time. In the experiment with UACC-62 melanoma, the TGI is more than 100 µM.

The record behind these values is PubChem BioAssay (NCI).
